Measured values as given in ChEMBL document CHEMBL3351493, “Beta-aminoketones as prodrugs for selective irreversible inhibitors of type-1 methionine aminopeptidases” (Bioorg Med Chem Lett, 2014).
Activity calls are given as the source filed them. No cut-off for these calls is given here.

How the values were obtained:
[1] = test system: Escherichia coli; test: Antimicrobial activity against Escherichia coli BL21(DE3) assessed as inhibition of bacterial growth incubated at 37 degC for 7 hrs; format: functional
[2] = Glutathione reactivity assessed as second-order rate constant at 250 uM at pH 6.0 by HPLC-UV method
[3] = test system: HaCaT; test: Cytotoxicity against human HaCaT cells at 1.6 to 100 ug/ml after 72 hrs by crystal violet assay; format: cell-based
[4] = Cytotoxicity against human Flow 2002 cells at 1.6 to 100 ug/ml after 72 hrs by crystal violet assay; format: cell-based; details: flow 2002, 72 h
[5] = test system: A 172; test: Cytotoxicity against human A172 cells at 1.6 to 100 ug/ml after 72 hrs by crystal violet assay; format: functional, cell-based
[6] = test system: CAPAN-1; test: Cytotoxicity against human Capan1 cells at 1.6 to 100 ug/ml after 72 hrs by crystal violet assay; format: functional, cell-based
[7] = test system: Ca-Ski; test: Cytotoxicity against human CaSki cells at 1.6 to 100 ug/ml after 72 hrs by crystal violet assay; format: functional, cell-based
[8] = test system: SW707; test: Cytotoxicity against human SW707 cells at 1.6 to 100 ug/ml after 72 hrs by crystal violet assay; format: functional, cell-based
[9] = test system: Calu-6; test: Cytotoxicity against human Calu6 cells at 1.6 to 100 ug/ml after 72 hrs by crystal violet assay; format: functional, cell-based
[10] = test system: MeWo; test: Cytotoxicity against human MeWo cells at 1.6 to 100 ug/ml after 72 hrs by crystal violet assay; format: functional, cell-based
[11] = test system: BT-474; test: Cytotoxicity against human BT474 cells at 1.6 to 100 ug/ml after 72 hrs by crystal violet assay; format: functional, cell-based
[12] = test system: A-431; test: Cytotoxicity against human A431 cells at 1.6 to 100 ug/ml after 72 hrs by crystal violet assay; format: functional, cell-based

| SMILES | MIC [1] | K [2] | Activity [3] | Activity [4] | Activity [5] | Activity [6] | Activity [7] | Activity [8] | Activity [9] | Activity [10] | Activity [11] | Activity [12] |
| --- | --- | --- | --- | --- | --- | --- | --- | --- | --- | --- | --- | --- |
| CN(C)[C@@H]1C(O)=C(C(N)=O)C(=O)[C@@]2(O)C(O)=C3C(=O)c4c(O)cccc4[C@@](C)(O)[C@H]3C[C@@H]12.Cl [TETRACYCLINE HYDROCHLORIDE] | 1 µg/mL | – | – | – | – | – | – | – | – | – | – | – |
| NC[C@H]1O[C@H](O[C@H]2[C@H](O)[C@@H](O[C@H]3O[C@H](CO)[C@@H](O)[C@H](N)[C@H]3O)[C@H](N)C[C@@H]2N)[C@H](O)[C@@H](O)[C@@H]1O.O=S(=O)(O)O [KANAMYCIN SULFATE] | 10 µg/mL | – | – | – | – | – | – | – | – | – | – | – |
| C=C1CCc2ccccc2C1=O | – | 1.4 M⁻¹ s⁻¹ | Toxic | Toxic | Active | Active | Active | Active | Active | Active | Active | Active |
| C=C1CCc2ccc(OC)cc2C1=O | – | 1.7 M⁻¹ s⁻¹ | Toxic | Toxic | Active | Active | Active | Active | Active | Active | Active | Active |
| C[C@@H]1O[C@@H]1P(=O)([O-])[O-].[Na+].[Na+] [PHOSPHOMYCIN DISODIUM] | 20 µg/mL | – | – | – | – | – | – | – | – | – | – | – |
